{
  "source": "patent US20250011311A1",
  "about": "“AMIDO HETEROAROMATIC COMPOUNDS” (AstraZeneca AB, priority 2022, published 2025)",
  "key": {"[1]": {"biological_target": "recombinant 17bHSD13 (N2-K300) (Homo sapiens (Human), UniProt Q7Z5P4)", "sequence (Q7Z5P4 2-300)": "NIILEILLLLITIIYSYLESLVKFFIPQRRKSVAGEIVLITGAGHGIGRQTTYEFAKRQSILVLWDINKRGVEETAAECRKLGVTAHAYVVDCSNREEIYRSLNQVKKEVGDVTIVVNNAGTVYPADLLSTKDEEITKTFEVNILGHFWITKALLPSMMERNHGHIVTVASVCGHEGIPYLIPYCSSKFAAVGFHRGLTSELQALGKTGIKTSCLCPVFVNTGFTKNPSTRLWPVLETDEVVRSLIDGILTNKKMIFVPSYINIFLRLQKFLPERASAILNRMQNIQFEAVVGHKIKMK", "assay": "In Vitro 17bHSD13 Enzyme Assay", "format": "biochemical", "conditions": "80 nM 17bHSD13, 0.5 mM NAD, 20 μM Estradiol, 2.5 h; estradiol to estrone by LC-MS/MS", "summary_of_the_method": "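Human 17bHSD13 (N2-K300, 80 nM) with 0.5 mM NAD, 20 μM estradiol and varied compound in 50 mM Tris-Cl pH 7.4, 5 mM EDTA, 0.01% DDM. Estrone/(estrone+estradiol) ratio read by LC-MS/MS (APCI, positive MRM). Inhibition normalised to DMSO and a known-inhibitor control; IC50 from curve fit.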"}, "[2]": {"biological_target": "recombinant 17bHSD4 (M1-N311) (Homo sapiens (Human), UniProt P51659)", "sequence (P51659 1-311)": "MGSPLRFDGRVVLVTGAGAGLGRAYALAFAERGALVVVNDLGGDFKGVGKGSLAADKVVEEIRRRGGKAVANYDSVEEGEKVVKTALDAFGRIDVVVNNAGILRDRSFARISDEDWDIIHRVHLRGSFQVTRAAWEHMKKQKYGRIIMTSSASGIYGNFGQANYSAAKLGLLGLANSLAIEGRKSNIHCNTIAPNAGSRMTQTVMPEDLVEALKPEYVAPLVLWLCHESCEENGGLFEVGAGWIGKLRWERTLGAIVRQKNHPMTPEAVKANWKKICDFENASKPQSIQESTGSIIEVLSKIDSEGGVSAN", "assay": "In Vitro 17bHSD4 Enzyme Assay", "format": "biochemical", "conditions": "40 nM 17bHSD4, 0.125 mM NAD, 15 μM Estradiol, 1.5 h; NADH fluorescence; read-out: 17HSD17b4 Enzyme assay IC50"}, "[3]": {"biological_target": "over expressed HSD17β13 in HEK293S cells (Homo sapiens (Human), UniProt Q7Z5P4)", "sequence (Q7Z5P4 20-300)": "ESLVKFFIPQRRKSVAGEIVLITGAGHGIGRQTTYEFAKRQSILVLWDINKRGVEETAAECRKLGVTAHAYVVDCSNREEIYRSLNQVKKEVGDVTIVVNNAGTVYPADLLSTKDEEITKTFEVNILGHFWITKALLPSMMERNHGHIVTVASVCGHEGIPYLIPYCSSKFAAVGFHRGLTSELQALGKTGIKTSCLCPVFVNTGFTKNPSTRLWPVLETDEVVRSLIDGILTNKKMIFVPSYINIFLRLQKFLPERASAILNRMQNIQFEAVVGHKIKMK", "assay": "In Vitro 17bHSD13 Cell Assay", "format": "cell-based", "conditions": "HEK293S cells over expressing HSD17β13; estradiol to estrone conversion, 18 h, LC-MS/MS; read-out: 17bHSD1713 Cell assay IC50", "summary_of_the_method": "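HEK293S cells overexpressing HSD17β13 convert estradiol to estrone; product read by LC-MS/MS (APCI, positive MRM) as AUC ratio estrone/(estrone+estradiol). Effect normalised between DMSO and maximal inhibition by a known inhibitor control; IC50 from curve fit.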"}, "human hepatocytes": {"system": "human hepatocytes", "assay": "Assay A: Metabolic Stability in Human Hepatocytes", "format": "in vitro ADME", "conditions": "cryopreserved human hepatocytes, 10^6 viable cells/mL, 1 μM compound, 37° C.", "description": "Assay A: Metabolic Stability in Human Hepatocytes\nHepatocyte metabolic stability was determined in accordance with the method described by Jacobson et al., An optimized automated assay for determination of metabolic stability using hepatocytes: assay validation, variance component analysis, and in vivo relevance. Assay Drug Dev Technol 2007, 5 (3), 403-415. DOI: 10.1089/adt.2007.059, which is incorporated herein by reference. Cryopreserved hepatocytes at a concentration of 10^6 viable cells/mL were used. After thawing, hepatocytes were incubated for 10 min to warm to 37° C. and test compounds, dissolved in acetonitrile, were added to give a final concentration of 1 μM. At 0.5, 5, 15, 30, 45, 60, 80, 100 and 120 min, the incubation system was mixed and 20 μL aliquots were transferred at each time point to wells in a separate plate filled with 80 μL MeCN to stop the reaction. The quenching plate was then vortexed followed by centrifugation, and supernatants were analyzed by LC-MS/MS. Peak areas were determined from extracted ion chromatograms, and the in vitro intrinsic clearance (in vitro CLint, in μL/min/10^6 cells) of parent compound was calculated from the slope in the regression analysis of the natural logarithm of parent concentration vs time curve."}, "[4]": {"biological_target": "human CB1 receptor expressed in transfected CHO cells (Homo sapiens (Human), UniProt P21554)", "sequence (P21554 whole entry)": "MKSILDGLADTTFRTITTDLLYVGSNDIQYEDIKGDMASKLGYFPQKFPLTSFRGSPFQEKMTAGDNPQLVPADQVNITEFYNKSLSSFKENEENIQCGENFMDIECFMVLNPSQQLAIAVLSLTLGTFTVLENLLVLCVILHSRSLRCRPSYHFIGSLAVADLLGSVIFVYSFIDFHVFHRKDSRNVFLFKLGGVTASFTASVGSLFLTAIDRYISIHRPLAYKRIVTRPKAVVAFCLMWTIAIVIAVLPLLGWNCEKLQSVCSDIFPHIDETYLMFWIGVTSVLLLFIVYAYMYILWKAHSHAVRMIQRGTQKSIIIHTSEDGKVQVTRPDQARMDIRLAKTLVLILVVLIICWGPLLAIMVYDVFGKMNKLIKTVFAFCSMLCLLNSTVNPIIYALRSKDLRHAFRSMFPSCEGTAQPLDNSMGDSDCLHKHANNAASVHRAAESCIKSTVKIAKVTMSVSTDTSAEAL", "assay": "Assay C: CB1 Agonism Assay", "format": "cell-based", "conditions": "agonist activity, cAMP HTRF, read-out: Assay C: CB1 Hu CHO cAMP TRF Ag CR GMean EC50", "description": "Assay C: CB1 Agonism Assay\nEvaluation of the agonist activity of compounds at the human CB1 receptor expressed in transfected CHO cells, determined by measuring their effects on cAMP modulation using the HTRF detection method.\nThereafter, the adenylyl cyclase activator NKH 477 is added at a final concentration of 3 μM. Following 20 min incubation at 37° C., the cells are lysed and the fluorescence acceptor (D2-labeled cAMP) and fluorescence donor (anti-cAMP antibody labeled with europium cryptate) are added. After 60 min at room temperature, the fluorescence transfer is measured at gex=337 nm and gem=620 and 665 nm using a microplate reader (RUBYSTAR, BMG). The cAMP concentration is determined by dividing the signal measured at 665 nm by that measured at 620 nm (ratio). The results are expressed as a percent of the control response to 30 nM CP 55940. The standard reference agonist is CP 55940, which is tested in each experiment at several concentrations to generate a concentration-response curve from which its EC50 value is calculated.\nBibliographic reference Felder, C. C. et al., (1995), Comparison of the pharmacology and signal transduction of the human cannabinoid CB1 and CB2 receptors, Mol. Pharmacol., 48: 443, which is incorporated herein by reference."}, "CYP2C9": {"biological_target": "CYP2C9 (Homo sapiens (Human), UniProt P11712)", "sequence (P11712 whole entry)": "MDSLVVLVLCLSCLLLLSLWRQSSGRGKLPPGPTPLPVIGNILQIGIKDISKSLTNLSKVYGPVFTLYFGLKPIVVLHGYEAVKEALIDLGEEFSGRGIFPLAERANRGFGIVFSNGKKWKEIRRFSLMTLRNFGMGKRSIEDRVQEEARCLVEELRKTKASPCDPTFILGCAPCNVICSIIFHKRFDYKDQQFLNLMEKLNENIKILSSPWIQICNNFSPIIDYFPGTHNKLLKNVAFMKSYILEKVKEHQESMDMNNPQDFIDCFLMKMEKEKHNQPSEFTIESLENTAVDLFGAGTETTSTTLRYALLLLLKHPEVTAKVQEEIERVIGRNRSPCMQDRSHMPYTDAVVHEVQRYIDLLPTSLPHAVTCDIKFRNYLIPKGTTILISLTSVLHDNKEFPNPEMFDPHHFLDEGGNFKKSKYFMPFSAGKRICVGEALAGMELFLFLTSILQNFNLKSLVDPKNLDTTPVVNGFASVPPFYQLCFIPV", "assay": "Assay B: Cytochrome P450 Inhibition 2C9", "procedure": "A fluorescence-based method in 96-well format was used to determine the inhibition of 2C9 (Crespi, C. L. et al., Microtiter plate assays for inhibition of human, drug-metabolizing cytochromes P450. Anal Biochem 1997, 248 (1), 188-190. DOI: 10.1006/abio.1997.2145, which is incorporated herein by reference). The recombinant human enzymes used were prepared in house, except for CYP2D6 (CYPEX LTD, Dundee, UK). Different coumarin substrates, biotransformed into fluorescent metabolites, were used as probes for each individual CYP. A fluorescence plate reader (SPECTRAMAX GEMINIXS, MOLECULAR DEVICES, Sunnyvale, California, USA) was used to measure the levels of metabolites formed. A dilution series of the test substrates was prepared at eight different concentrations. For each CYP, a mixture of the enzyme, corresponding coumarin substrate, potassium phosphate buffer pH 7.4 and water (concentrations and volumes were CYP-dependent) were added to each well in a black 96-well plate. The test substrates at different concentrations were added. After 10 min pre-incubation, the co-factor NADPH was added to initiate the reaction. After 20-50 min (CYP and substrate-dependent) the reaction was terminated by addition of trisbase/MeCN (20:80). The plates were transferred to the fluorescence plate reader where the wavelengths were set individually for the different coumarin substrates and their respective fluorescent metabolite. The responses were exported to Excel where the IC50 curves were plotted (percent inhibition versus concentration) and IC50 values calculated for each test substrate and enzyme using XL-fit."}},
  "data": [
    {"smiles": "N#Cc1cccc(C2CN(C(=O)c3noc(-c4cc(F)c(F)c(O)c4F)n3)C2)c1", "note": "[Example 85, 3-(1-(5-(2,4,5-Trifluoro-3-hydroxyphenyl)-1,2,4-oxadiazole-3-carbonyl)azetidin-3-yl)benzonitrile]", "values": [
      {"measurement": "IC50", "setting": "[1]", "result": 0.317, "unit": "µM"},
      {"measurement": "IC50", "setting": "[2]", "result": 21.7, "unit": "µM"},
      {"measurement": "IC50", "setting": "[3]", "result": 3.38, "unit": "µM"},
      {"measurement": "Assay A: Human Heps Met Clint GMean CLint (μl/min/1E6)", "setting": "human hepatocytes", "result": 14.1, "unit": "μl/min/1E6"},
      {"measurement": "EC50", "setting": "[4]", "result": 9.3, "unit": "µM"},
      {"measurement": "IC50", "setting": "CYP2C9", "result": 3.4, "unit": "µM"}
    ]}
  ]
}
